Measurements: patent publication US20250186457A1, “USE OF AN ORGANOMETALLIC RUTHENIUM COMPOUND FOR THE PREVENTION AND/OR TREATMENT OF DISEASES AND/OR CONDITIONS RELATED TO CANCER IN AN INDIVIDUAL” (FACULDADE DE CIÊNCIAS DA UNIVERSIDADE DE LISBOA, priority 2022, published 2025)

Legend:
[1] = system: KRAS, pAKT, total-AKT, pERK and total-ERK proteins in RKO cells; experiment: Western blot analysis, RKO cell line harboring wild-type KRAS; type: cell-based; details: 48 h with IC50 values
[2] = system: KRAS, pAKT, total-AKT, pERK and total-ERK proteins, in SW480 cells; experiment: Western blot analysis, SW480 cells harboring KRAS mutation; type: cell-based; details: 48 h at the IC50 concentration of each compound, KRAS mutated
Experimental: SW480 cells were exposed for 48 h, at the IC50 concentration of each compound before protein extraction and Western blot analysis.

SW480 cell line [3] = system: SW480 cell line
Experimental: SW480 cell line was seeded in 6-well plates. […] 24 h and 48 h later, cells were collected and processed according to the method described in (Teixeira et al., 2018). Cell-cycle phase data analysis and quantification was performed using FlowJo 10.7.2 software.

[4] = system: noncancerous NCM460 cell line derived from normal colon epithelial mucosa; details: read-out: IC50 in noncancerous cell line NCM460; Sulforhodamine B, 48 h
Experimental: (§1) The noncancerous NCM460 cell line derived from normal colon epithelial mucosa, was obtained from INCELL's (Moyer et al., 1996), and the colorectal cancer derived cell lines, SW480, LS174T and RKO, were obtained from American Type Culture Collection (ATCC). All cell lines were maintained at 37° C. under a humidified atmosphere containing 5% CO2. NCM460 and SW480 cells were grown in RPMI medium and LS174T and RKO cells in DMEM, all supplemented with 10% FBS and 1% penicillin/streptomycin. SW480 cell were seeded normally at a concentration of 1×10^5 cells/ml except for some specific assays.
(§2) After 48 h of treatment, Sulforhodamine B was performed as previously described (Côrte-Real et al., 2019). Results were expressed relatively to the negative control (1), which was considered as 100% of cell growth.
(§3) Values represent mean+SD of at least three independent experiments.

SW480 CRC cell line = details: read-out: IC50 in SW480 CRC cell line; Sulforhodamine B, 48 h
Experimental: as §1, §2, §3

breast cancer cell lines [5] = details: cited from earlier work
MDA-MB-231 = details: read-out: IC50 MDA-MB-231 (PMC79); breast cancer cell line; cited from earlier work
SW480 cell line [6] = experiment: Wound healing assay; details: IC50 and 2×IC50, 12 h
Experimental: SW480 cell line was seeded at a concentration of 7×10^5 cells/ml, in 6-well plates. […] The negative control cells were treated with DMSO 0.1%. Each condition was photographed at 0 h, 4 h, 8 h and 12 h. To analyze the data and measure the wound size at each time-point ImageJ 1.53a software was used.
Values represent mean±S.D. of at least three independent experiments. Statistical analysis was performed by one-way ANOVA with Turkey's multiple comparisons test. *P≤0.05; ***P≤0.001 compared with negative control.

SW480 cell line [7] = experiment: Colony formation assay; details: 48 h with ¼ IC50 and ½ IC50, SW480
Experimental: SW480 cell line was seeded, at a concentration of 500 cells/ml, in 6-well plates. […] The negative control cells were treated with DMSO 0.1%. […] Medium was renewed every 3 days. Nine days after removing the treatments, cells were stained as previously described (Côrte-Real, Karas, Brás, et al., 2019).
The FIG. 1 illustrates the analysis of the colony formation ability, after 48 h of incubation with ¼ IC50 and ½ IC50, in SW480 cell line. […] The values represent mean±S.D. of at least three independent experiments. Statistical analysis was performed by one-way ANOVA with Dunnett's multiple comparisons test. ****P≤ 0.0001 compared with negative control.

A2780 = details: read-out: IC50 A2780; ovarian cancer cell line; cited from earlier work
breast cancer cell lines [8] = details: cited from earlier work; remark: listed apart in the source
SW480 cell line [9] = details: IC50 value, 48 h
Experimental: SW480 cell line was seeded in 12-well plates with one coverslip per well. […] After 48 hours of incubation, the cells were fixed and stained as previously described (Pilon et al., 2020). Representative images were obtained in a fluorescence microscope (Olympus motorized BX63F Upright Microscope) (Olympus@, Tokyo, Japan) at a magnification of 600×.
Representative images (×600) of DAPI (4′,6-diamidino-2-phenylindole), Phalloidin-AlexaFluor 568 and merged were obtained in a fluorescence microscope. The results were obtained from at least three independent experiments.

MCF7 = details: breast cancer cell line; cited from earlier work
SW480 cell line [10] = details: IC50 of PMC79, 48 h
Experimental: After 48 h, cells were processed according with (Teixeira et al., 2018). Slides were maintained at −20° C. until visualization in a fluorescence microscope (Leica DM 5000B, Leica Microsystems, Wetzlar, Germany).
DAPI ([…]), FITC (fluorescein isothiocyanate) and merged were obtained by fluorescence microscopy.

SW480 cells = details: IC50 and 2×IC50, 48 h and 72 h
Experimental: SW480 cells were incubated with the dye and seeded according to the procedure recommended by CFSE package insert (BD Horizon™). […] After 48 h and 72 h, both floating and attached cells were collected, washed with PBS, centrifuged at 500 rpm for 10 min and the pellet resuspended in PBS before cytometer acquisition.
The effects on proliferation were also studied using carboxyfluorescein succinimidyl ester assay (CFSE). […] Thus, when cell proliferation is inhibited, we observe an increase of the intracellular fluorescence.
The FIG. 3 illustrates the quantification of CFSE median fluorescence intensity normalized to T0 after 48 and 72 h of incubation with IC50 and 2×IC50, in SW480 cell line. The values represent mean±S.D. of at least three independent experiments. Statistical analysis was performed by two-way ANOVA with Dunnett's multiple comparisons test. **P≤0.01; ***P≤0.001; ****P≤0.0001 compared with negative control.

[11] = system: KRAS, pAKT, total-AKT, pERK and total-ERK proteins, in LS174T cells; details: 48 h of incubation, KRAS mutation
Experimental: Preparation of total protein extracts of colorectal cancer cell lines (RKO, LS174T and SW480), SDS-PAGE and Western blots were performed as previously described (Alves et al., 2015).
The Antibodies used were anti-KRAS and β-actin (Sigma); anti-phospho p44/42 MAPK (Thr202/Tyr204) (pERK), anti-p44/42 total (ERK), anti-phospho Akt (Ser473) (pAKT) and anti-Akt total (Cell Signaling) (AKT); GAPDH (Gene Tex). Proteomic study
GAPDH immunoblot was used as a loading control. The results were obtained from at least three independent experiments.

breast cancer cell lines [12] = details: cited from earlier work; remark: listed apart in the source
SW480 = details: IC50 value, 48 h
Experimental: Acquisition was performed using CytoFLEX Cytometer (Beckman Coulter, Brea, CA, USA).
The FIG. 4 illustrates the apoptotic cell death analysis.

[13] = system: proteins involved in MAPK and PI3K signaling pathways, in SW480 cells; details: SW480, 48 h, IC50 of PMC79
Experimental: Samples were processed for LC-MS/MS analysis (Chiva et al. 2018; Olivella et al. 2021). Protein identification and validation, and gene ontology, localization and network analysis were performed as previously described (Perkins et al., 1999; Beer et al., 2017; Perez-Riverol et al., 2022).
Values represent mean of at least three independent experiments.

For `N.N.[Cl][Pt][Cl]` [cisplatin, reference compound], which “expression of KRAS, pERK, total-ERK, pAKT and total-AKT in RKO” value [1] is on record?
The value was “The same was also observed”.

And the “expression of KRAS, pERK, total-ERK, pAKT and total-AKT in SW480” value [2]?
The value was “not observed”.

Which “expression of KRAS, pERK, total-ERK, pAKT and total-AKT in RKO” value [1] does the source give for `O=S(=O)([O-])C(F)(F)F.OCc1ccnc(-c2cc(CO)ccn2)c1.[Ru+2].c1cc[cH-]c1.c1ccc(P(c2ccccc2)c2ccccc2)cc1` [PMC79, ({2,2′-bipyridine}-4,4′-diyldimethanol-k^2N, N′)(η^5-cyclopentadienyl) (6riphenylphosphine) ruthenium (II) triflate] here?
The value was “no effect”.

And the “cell cycle alteration at 24 h” value (SW480 cell line [3]; IC50 of PMC79, 24 h)?
The value was “cell cycle arrest at G0/G1 phase”.

What about the “cell cycle alteration at 48 h” value (SW480 cell line [3]; IC50 of PMC79, 48 h) of the same compound?
Its value is “increase of sub-G1 population”.

And the IC50 [4]?
Its IC50 is 44 µM.

And the IC50 (SW480 CRC cell line)?
Its IC50 is 40 µM.

And the “expression of KRAS, pERK, total-ERK, pAKT and total-AKT in SW480” value [2]?
Its value is “inhibit to a very high extent”.

What about the “apoptosis (Annexin V stained cells) in breast cancer cell lines” value (breast cancer cell lines [5]) of the same compound?
Its value is “induced apoptosis”.

And the IC50 (MDA-MB-231)?
The IC50 was 2.1 µM.

And the “percentage of wound closure” value (SW480 cell line [6])?
The value was “decreased the percentage of wound closure in a dose-dependent manner”.

And the “clonogenic ability (colony formation)” value (SW480 cell line [7])?
Its value is “significantly decreased the clonogenic ability”.

What about the IC50 (A2780) of the same compound?
The IC50 was 3.9 µM.

And the “proliferation / colony formation ability in breast cancer cell lines” value (breast cancer cell lines [8])?
Its value is “inhibited proliferation by decreasing colony formation ability”.

What about the “F-actin organization and morphology” value (SW480 cell line [9]) of the same compound?
Its value is “affect cell-cell adhesion and intercellular contacts establishment”.

What about the IC50 (MCF7) of the same compound?
Its IC50 is 5.9 µM.

What about the TUNEL positive cells (SW480 cell line [10]) of the same compound?
The TUNEL positive cells was “increase of the number of apoptotic cells (TUNEL positive)”.

And the “proliferation (CFSE median fluorescence intensity)” value (SW480 cells)?
Its value is “decrease in proliferation under all conditions”.

What about the “expression of KRAS, pERK, total-ERK, pAKT and total-AKT in LS174T” value [11] of the same compound?
The value was “able to inhibit the expression”.

And the “mitochondria morphology and actin cytoskeleton in breast cancer cell lines” value (breast cancer cell lines [12])?
Its value is “induced alterations in mitochondria morphology”.

What about the “necrotic cells (AV−/PI+)” value (SW480) of the same compound?
The value was 10%.

What about the “percentage of apoptotic cells (AV+/PI−; AV+/PI+)” value (SW480) of the same compound?
Its value is 74%.

What about the “Abundance Ratio (log2): (pmc79)/(Control), AKT1” value [13] of the same compound?
Its value is −0.4039.

What about the “Abundance Ratio (log2): (pmc79)/(Control), AKT2” value [13] of the same compound?
The value was −0.2506.

And the “Abundance Ratio (log2): (pmc79)/(Control), EGFR” value [13]?
Its value is −0.948.

What about the “Abundance Ratio (log2): (pmc79)/(Control), ERK1” value [13] of the same compound?
The value was −0.3601.

What about the “Abundance Ratio (log2): (pmc79)/(Control), KRAS” value [13] of the same compound?
The value was −0.4019.

What about the “Abundance Ratio (log2): (pmc79)/(Control), MEK1” value [13] of the same compound?
The value was −0.5421.

And the “Abundance Ratio (log2): (pmc79)/(Control), MEK2” value [13]?
Its value is −0.2365.

And the “Abundance Ratio (log2): (pmc79)/(Control), MTOR” value [13]?
Its value is −1.326.

And the “Abundance Ratio (log2): (pmc79)/(Control), PIK3C3” value [13]?
Its value is −0.1795.

And the “Abundance Ratio (log2): (pmc79)/(Control), PIK3R4” value [13]?
The value was −0.5555.

And the “abundance of all proteins involved in KRAS signaling pathways versus control” value ([13]; EGFR, KRAS, MEK 1, MEK 2, ERK1, PIK3, AKT1, AKT2, MTOR)?
The value was “less abundant”.
